In patent US20240150375A1, “MACROCYCLIC COMPOUNDS AND USES THEREOF” (Theseus Pharmaceuticals, Inc., priority 2021, published 2024):

How the values were obtained:
Ba/F3 EGFR-Del19/C797S = Ba/F3 EGFR-Del19/C797S (Homo sapiens, UniProt P00533, C797S, cells depend on it, form not given); experiment: Ba/F3 viability assay (CellTiter-Glo), EGFR-Del19/C797S (DC); assay type: cell-based; details: Ba/F3 EGFR-Del19/C797S anti-proliferation; read-out: BAF3 DC IC50
Description: (§1) Inhibition of cell proliferation can be studied using Ba/F3 viability assays, including the Promega CellTiter-Glo cell viability assay. This assay can be used to study the effect of compounds described herein in the following assays: (1) Ba/F3 Parental; (2) Ba/F3 EGFR-Del19/T790M; (3); Ba/F3 EGFR-Del19/C797S; and (4) Ba/F3 EGFR-Del119/T790M/C797S.
(§2) One hundred thirty six compounds were studied using the kinase (EGFR) and BA/F3 assays described herein, with more than 60% of the tested compounds providing IC50<50 nM values in all six assays. Accordingly, compounds of the invention are a new general class of kinase inhibitors, including potent inhibitors of EGFR mutants.
(§3) Exemplary kinase inhibition (Kinase) and anti-proliferation activity (Ba/F3) data are shown in Table 1 for certain compounds of the invention and are categorized according to the below legend.

[1] = biological target: Ba/F3 EGFR-Del19/T790M/C797S (Homo sapiens, UniProt P00533, T790M/C797S, cells depend on it, form not given); experiment: Ba/F3 viability assay (CellTiter-Glo), EGFR-Del19/T790M/C797S (DTC); assay type: cell-based; details: Ba/F3 EGFR-Del19/T790M/C797S anti-proliferation; read-out: BAF3 DTC IC50
Chain of Ba/F3 EGFR-Del19/T790M/C797S (P00533 with tags, fused parts or gaps DEL746-750/T790M/C797S, form open): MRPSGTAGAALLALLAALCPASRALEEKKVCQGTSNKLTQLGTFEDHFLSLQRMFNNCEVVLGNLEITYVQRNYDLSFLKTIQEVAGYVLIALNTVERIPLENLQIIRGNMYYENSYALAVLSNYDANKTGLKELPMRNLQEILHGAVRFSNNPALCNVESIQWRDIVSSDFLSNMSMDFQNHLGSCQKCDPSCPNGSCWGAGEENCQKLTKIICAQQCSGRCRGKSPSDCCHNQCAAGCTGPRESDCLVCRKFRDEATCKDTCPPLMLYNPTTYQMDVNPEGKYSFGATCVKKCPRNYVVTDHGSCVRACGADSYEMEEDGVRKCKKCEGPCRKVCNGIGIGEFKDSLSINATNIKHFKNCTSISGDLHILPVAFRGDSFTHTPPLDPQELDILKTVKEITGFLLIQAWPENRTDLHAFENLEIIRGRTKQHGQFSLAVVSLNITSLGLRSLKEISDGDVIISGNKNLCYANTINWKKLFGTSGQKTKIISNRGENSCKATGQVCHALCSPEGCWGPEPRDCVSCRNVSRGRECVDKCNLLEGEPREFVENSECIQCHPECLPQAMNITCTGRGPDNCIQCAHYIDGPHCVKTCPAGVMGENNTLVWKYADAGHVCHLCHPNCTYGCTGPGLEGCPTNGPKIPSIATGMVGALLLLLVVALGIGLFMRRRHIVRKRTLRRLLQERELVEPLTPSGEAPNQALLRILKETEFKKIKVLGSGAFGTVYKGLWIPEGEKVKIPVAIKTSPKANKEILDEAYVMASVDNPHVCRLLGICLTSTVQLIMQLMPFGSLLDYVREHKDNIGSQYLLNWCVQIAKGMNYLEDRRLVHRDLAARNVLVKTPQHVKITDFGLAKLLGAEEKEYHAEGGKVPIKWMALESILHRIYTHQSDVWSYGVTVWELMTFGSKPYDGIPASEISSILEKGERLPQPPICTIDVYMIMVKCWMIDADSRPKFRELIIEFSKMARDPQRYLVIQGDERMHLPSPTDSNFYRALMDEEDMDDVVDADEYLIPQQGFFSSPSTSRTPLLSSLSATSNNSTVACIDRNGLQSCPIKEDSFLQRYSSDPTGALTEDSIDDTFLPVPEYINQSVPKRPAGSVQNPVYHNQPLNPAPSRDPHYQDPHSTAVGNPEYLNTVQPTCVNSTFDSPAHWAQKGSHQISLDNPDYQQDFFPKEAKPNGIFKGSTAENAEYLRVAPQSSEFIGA
Description: as §1, §2, §3

EGFR^L858R/T790M/C797S = EGFR^L858R/T790M/C797S (Homo sapiens, UniProt P00533, C797S/L858R/T790M); experiment: HTRF KinEASE-TK in vitro kinase assay, EGFR L858R/T790M/C797S (LTC); assay type: biochemical; details: EGFR L858R/T790M/C797S kinase inhibition
Chain of EGFR^L858R/T790M/C797S (P00533 25-1210 T790M/C797S/L858R): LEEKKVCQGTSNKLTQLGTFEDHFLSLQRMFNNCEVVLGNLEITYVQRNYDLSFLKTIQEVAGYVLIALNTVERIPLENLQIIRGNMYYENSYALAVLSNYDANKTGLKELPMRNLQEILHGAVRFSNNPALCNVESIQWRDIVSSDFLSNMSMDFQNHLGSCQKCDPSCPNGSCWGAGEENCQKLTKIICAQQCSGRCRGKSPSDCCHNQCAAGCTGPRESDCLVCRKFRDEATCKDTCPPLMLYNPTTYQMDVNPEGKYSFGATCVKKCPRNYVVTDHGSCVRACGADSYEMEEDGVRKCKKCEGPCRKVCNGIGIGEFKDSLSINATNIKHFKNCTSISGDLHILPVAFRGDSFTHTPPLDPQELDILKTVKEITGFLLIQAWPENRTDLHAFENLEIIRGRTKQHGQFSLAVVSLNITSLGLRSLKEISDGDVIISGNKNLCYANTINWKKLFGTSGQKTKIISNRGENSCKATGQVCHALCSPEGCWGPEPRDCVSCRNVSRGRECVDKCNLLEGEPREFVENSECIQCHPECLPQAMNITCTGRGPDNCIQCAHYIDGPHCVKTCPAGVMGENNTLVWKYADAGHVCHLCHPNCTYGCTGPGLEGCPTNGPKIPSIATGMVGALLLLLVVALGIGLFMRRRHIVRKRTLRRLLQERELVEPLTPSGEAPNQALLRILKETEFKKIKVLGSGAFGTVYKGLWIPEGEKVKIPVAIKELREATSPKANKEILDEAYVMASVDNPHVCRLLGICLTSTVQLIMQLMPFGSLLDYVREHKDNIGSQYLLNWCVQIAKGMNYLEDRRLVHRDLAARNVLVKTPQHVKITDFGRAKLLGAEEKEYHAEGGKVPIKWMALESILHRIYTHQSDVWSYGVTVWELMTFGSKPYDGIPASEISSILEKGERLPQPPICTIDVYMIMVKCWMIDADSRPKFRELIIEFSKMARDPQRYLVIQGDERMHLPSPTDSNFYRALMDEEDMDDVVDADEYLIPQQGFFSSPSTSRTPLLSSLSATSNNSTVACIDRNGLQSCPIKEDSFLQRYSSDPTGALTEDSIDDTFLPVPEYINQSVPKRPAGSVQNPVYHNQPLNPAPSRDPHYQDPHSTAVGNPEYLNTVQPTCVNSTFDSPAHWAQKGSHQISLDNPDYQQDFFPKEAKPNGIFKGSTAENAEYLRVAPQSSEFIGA
Description: (§4) The biological activity of compounds described herein can be studied according to standard methods known in the art. Methods can be used to study inhibition of EGFR, including mutant forms of EGFR comprising L858R, T790M, C797S, and/or Del19 mutations, or any combination thereof (e.g., L858R single, double, or triple mutants). Exemplary, non-limiting methods are described herein.
(§5) Assays using an in vitro kinase assay kit (HTRF KinEASE-TK kit) can be used to study the inhibitory activity of compounds described herein with respect to EGFR mutants such as ECFR^L858R, EGFR^L858R/T790M, and EGFR^L858R/T790M/C797S.
as §2, §3

EGFR^L858R/T790M = EGFR^L858R/T790M (Homo sapiens, UniProt P00533, L858R/T790M); experiment: HTRF KinEASE-TK in vitro kinase assay, EGFR L858R/T790M (LT); assay type: biochemical; details: EGFR L858R/T790M kinase inhibition
Description: as §4, §5, §2, §3

Ba/F3 EGFR-Del19/T790M = Ba/F3 EGFR-Del19/T790M (Homo sapiens, UniProt P00533, T790M, cells depend on it, form not given); experiment: Ba/F3 viability assay (CellTiter-Glo), EGFR-Del19/T790M (DT); assay type: cell-based; details: Ba/F3 EGFR-Del19/T790M anti-proliferation; read-out: BAF3 DT IC50
Chain of Ba/F3 EGFR-Del19/T790M (P00533 with tags, fused parts or gaps DEL746-750/T790M, form open): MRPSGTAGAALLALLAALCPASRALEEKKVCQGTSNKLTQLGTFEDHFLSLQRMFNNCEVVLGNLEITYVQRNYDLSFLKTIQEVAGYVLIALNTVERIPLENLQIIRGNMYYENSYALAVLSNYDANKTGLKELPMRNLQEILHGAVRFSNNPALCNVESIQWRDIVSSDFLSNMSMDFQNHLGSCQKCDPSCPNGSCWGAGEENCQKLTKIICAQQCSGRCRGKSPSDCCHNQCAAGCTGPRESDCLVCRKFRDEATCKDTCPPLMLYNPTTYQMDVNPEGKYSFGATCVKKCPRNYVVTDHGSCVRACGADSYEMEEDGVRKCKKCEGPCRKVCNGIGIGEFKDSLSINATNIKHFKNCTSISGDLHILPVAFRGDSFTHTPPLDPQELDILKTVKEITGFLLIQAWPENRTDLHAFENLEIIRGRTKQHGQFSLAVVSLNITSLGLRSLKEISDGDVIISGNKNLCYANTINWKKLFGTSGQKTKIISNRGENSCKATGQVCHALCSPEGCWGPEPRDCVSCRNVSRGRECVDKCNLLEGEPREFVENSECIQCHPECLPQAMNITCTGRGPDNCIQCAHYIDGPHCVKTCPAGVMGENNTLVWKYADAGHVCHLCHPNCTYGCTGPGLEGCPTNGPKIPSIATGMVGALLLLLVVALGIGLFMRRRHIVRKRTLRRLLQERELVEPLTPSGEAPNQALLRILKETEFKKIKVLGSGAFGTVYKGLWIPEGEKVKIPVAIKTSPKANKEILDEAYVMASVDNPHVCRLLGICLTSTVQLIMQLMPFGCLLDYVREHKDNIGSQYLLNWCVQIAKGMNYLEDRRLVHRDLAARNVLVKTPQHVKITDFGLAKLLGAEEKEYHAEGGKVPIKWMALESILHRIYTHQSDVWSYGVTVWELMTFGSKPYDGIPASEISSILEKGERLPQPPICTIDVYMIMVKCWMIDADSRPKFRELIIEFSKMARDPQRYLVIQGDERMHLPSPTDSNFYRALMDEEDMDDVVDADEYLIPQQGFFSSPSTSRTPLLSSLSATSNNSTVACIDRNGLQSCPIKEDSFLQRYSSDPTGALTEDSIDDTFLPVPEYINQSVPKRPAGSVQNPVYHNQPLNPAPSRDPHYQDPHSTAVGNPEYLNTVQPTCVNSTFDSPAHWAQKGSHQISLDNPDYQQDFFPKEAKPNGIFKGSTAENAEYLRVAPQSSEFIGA
Description: as §1, §2, §3

EGFR^L858R = EGFR^L858R (Homo sapiens, UniProt P00533, L858R); experiment: HTRF KinEASE-TK in vitro kinase assay, EGFR L858R (L); assay type: biochemical; details: EGFR L858R kinase inhibition
Description: as §4, §5, §2, §3

Chain of Ba/F3 EGFR-Del19/C797S (P00533 with tags, fused parts or gaps DEL746-750/C797S, form open): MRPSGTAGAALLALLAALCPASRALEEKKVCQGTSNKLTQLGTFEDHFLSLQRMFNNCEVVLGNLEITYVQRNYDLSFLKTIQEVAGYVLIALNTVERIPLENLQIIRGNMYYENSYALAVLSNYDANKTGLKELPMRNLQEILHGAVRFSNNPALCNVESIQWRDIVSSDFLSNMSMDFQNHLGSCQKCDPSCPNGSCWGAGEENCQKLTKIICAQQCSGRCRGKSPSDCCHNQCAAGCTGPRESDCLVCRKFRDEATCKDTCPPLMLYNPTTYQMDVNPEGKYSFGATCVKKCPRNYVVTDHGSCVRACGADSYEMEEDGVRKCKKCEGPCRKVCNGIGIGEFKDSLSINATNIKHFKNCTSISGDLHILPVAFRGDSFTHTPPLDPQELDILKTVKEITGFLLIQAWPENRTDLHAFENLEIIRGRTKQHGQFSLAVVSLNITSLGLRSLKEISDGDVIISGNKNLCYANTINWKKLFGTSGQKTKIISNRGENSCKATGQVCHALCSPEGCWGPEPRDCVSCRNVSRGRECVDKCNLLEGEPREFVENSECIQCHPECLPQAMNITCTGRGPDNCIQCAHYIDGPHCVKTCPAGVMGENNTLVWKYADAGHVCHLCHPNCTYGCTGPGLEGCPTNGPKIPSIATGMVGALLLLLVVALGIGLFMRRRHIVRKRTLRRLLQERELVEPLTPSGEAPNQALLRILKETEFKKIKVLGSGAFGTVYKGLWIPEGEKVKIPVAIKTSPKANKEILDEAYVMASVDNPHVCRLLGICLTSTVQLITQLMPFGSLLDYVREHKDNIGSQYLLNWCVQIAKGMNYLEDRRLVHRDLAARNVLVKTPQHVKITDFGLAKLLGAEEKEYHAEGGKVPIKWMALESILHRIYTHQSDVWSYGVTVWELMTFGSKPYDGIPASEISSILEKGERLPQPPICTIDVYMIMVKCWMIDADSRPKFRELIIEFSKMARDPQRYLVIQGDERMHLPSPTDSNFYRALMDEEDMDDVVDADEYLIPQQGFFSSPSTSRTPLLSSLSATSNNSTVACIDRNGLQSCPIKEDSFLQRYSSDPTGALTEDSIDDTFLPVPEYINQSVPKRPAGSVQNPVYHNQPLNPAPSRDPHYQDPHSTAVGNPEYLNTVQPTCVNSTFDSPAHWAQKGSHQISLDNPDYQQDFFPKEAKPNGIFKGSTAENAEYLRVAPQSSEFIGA

C[C@H]1CCOc2c(cnn2C)-c2nccc(n2)Nc2cc(c(-c3cn(C)cc3OCC(F)(F)F)cn2)O1 [(48), (10S)-5,10-dimethyl-13-[1-methyl-4-(2,2,2-trifluoroethoxy)pyrrol-3-yl]-7,11-dioxa-4,5,15,17,21,22-hexazatetracyclo[16.3.1.1^12,16.0^2,6]tricosa-1(22),2(6),3,12(23),13,15,18,20-octaene]
GI50 (Ba/F3 EGFR-Del19/C797S): < 0.05 µM | GI50 [1]: < 0.05 µM | IC50 (EGFR^L858R/T790M/C797S): < 0.05 µM | IC50 (EGFR^L858R/T790M): < 0.05 µM | GI50 (Ba/F3 EGFR-Del19/T790M): < 0.05 µM | IC50 (EGFR^L858R): < 0.05 µM

C[C@H]1CCOc2c(cnn2C)-c2nccc(n2)Nc2cc(c(-c3cn(CCN4CCCC4)nc3OCC(F)(F)F)cn2)O1 [(56)]
GI50 (Ba/F3 EGFR-Del19/C797S): < 0.05 µM | GI50 [1]: < 0.05 µM | IC50 (EGFR^L858R/T790M/C797S): < 0.05 µM | IC50 (EGFR^L858R/T790M): < 0.05 µM | GI50 (Ba/F3 EGFR-Del19/T790M): < 0.05 µM | IC50 (EGFR^L858R): < 0.05 µM

CCOC(=O)CN1CCC(n2cc(-c3cnc4cc3O[C@@H](C)CCOc3c(cnn3C)-c3nccc(n3)N4)c(OCC)n2)CC1 [(62)]
GI50 (Ba/F3 EGFR-Del19/C797S): < 0.05 µM | GI50 [1]: < 0.05 µM | IC50 (EGFR^L858R/T790M/C797S): < 0.05 µM | IC50 (EGFR^L858R/T790M): < 0.05 µM | GI50 (Ba/F3 EGFR-Del19/T790M): < 0.05 µM | IC50 (EGFR^L858R): < 0.05 µM

C[C@H]1CCOc2c(cnn2C)-c2nccc(n2)Nc2cc(c(Nc3ccn(C)n3)cn2)O1 [(70)]
GI50 (Ba/F3 EGFR-Del19/C797S): < 0.05 µM | GI50 [1]: < 0.05 µM | IC50 (EGFR^L858R/T790M/C797S): < 0.05 µM | IC50 (EGFR^L858R/T790M): < 0.05 µM | GI50 (Ba/F3 EGFR-Del19/T790M): < 0.05 µM | IC50 (EGFR^L858R): < 0.05 µM

C[C@H]1CCOc2c(cnn2C)-c2nccc(n2)Nc2cc(c(-c3cc4ccccc4n3C)cn2)O1 [(74)]
GI50 (Ba/F3 EGFR-Del19/C797S): ≥ 1 µM | GI50 [1]: 0.1 to 1 µM | IC50 (EGFR^L858R/T790M/C797S): 0.1 to 1 µM | IC50 (EGFR^L858R/T790M): 0.1 to 1 µM | GI50 (Ba/F3 EGFR-Del19/T790M): 0.1 to 1 µM | IC50 (EGFR^L858R): ≥ 1 µM

C[C@H]1CCOc2c(cnn2C)-c2nccc(n2)Nc2cc(c(-c3ccc4c(ccn4C)c3)cn2)O1 [(75)]
GI50 (Ba/F3 EGFR-Del19/C797S): 0.1 to 1 µM | GI50 [1]: < 0.05 µM | IC50 (EGFR^L858R/T790M/C797S): < 0.05 µM | IC50 (EGFR^L858R/T790M): < 0.05 µM | GI50 (Ba/F3 EGFR-Del19/T790M): 0.05 to 0.1 µM | IC50 (EGFR^L858R): 0.05 to 0.1 µM

C[C@H]1CCOc2c(cnn2C)-c2nccc(n2)Nc2cc(c(-c3cnc(N4CCN(C)CC4)n3C)cn2)O1 [(77)]
GI50 (Ba/F3 EGFR-Del19/C797S): 0.1 to 1 µM | GI50 [1]: < 0.05 µM | IC50 (EGFR^L858R/T790M/C797S): < 0.05 µM | IC50 (EGFR^L858R/T790M): < 0.05 µM | GI50 (Ba/F3 EGFR-Del19/T790M): 0.05 to 0.1 µM | IC50 (EGFR^L858R): < 0.05 µM

Cc1c(-c2cnc3cc2O[C@@H](C)CCOc2c(cnn2C)-c2nccc(n2)N3)cnn1C1CCN(CCCF)CC1 [(84)]
GI50 (Ba/F3 EGFR-Del19/C797S): < 0.05 µM | GI50 [1]: < 0.05 µM | IC50 (EGFR^L858R/T790M/C797S): < 0.05 µM | IC50 (EGFR^L858R/T790M): < 0.05 µM | GI50 (Ba/F3 EGFR-Del19/T790M): < 0.05 µM | IC50 (EGFR^L858R): < 0.05 µM

Cc1nn(C2CCN(CCF)CC2)cc1-c1cnc2cc1O[C@@H](C)CCOc1c(cnn1C)-c1nccc(n1)N2 [(85)]
GI50 (Ba/F3 EGFR-Del19/C797S): < 0.05 µM | GI50 [1]: < 0.05 µM | IC50 (EGFR^L858R/T790M/C797S): < 0.05 µM | IC50 (EGFR^L858R/T790M): < 0.05 µM | GI50 (Ba/F3 EGFR-Del19/T790M): < 0.05 µM | IC50 (EGFR^L858R): < 0.05 µM

C[C@H]1CCOc2c(cnn2C)-c2nccc(n2)Nc2cc(c(-c3ccnn3CCN3CCOCC3)cn2)O1 [(89)]
GI50 (Ba/F3 EGFR-Del19/C797S): ≥ 1 µM | GI50 [1]: ≥ 1 µM | IC50 (EGFR^L858R/T790M/C797S): 0.1 to 1 µM | IC50 (EGFR^L858R/T790M): < 0.05 µM | GI50 (Ba/F3 EGFR-Del19/T790M): ≥ 1 µM | IC50 (EGFR^L858R): ≥ 1 µM

C[C@H]1CCOc2c(cnn2C)-c2nccc(n2)Nc2cc(c(-c3ncc(CN4CCN(C)CC4)s3)cn2)O1 [(92)]
GI50 (Ba/F3 EGFR-Del19/C797S): < 0.05 µM | GI50 [1]: < 0.05 µM | IC50 (EGFR^L858R/T790M/C797S): < 0.05 µM | IC50 (EGFR^L858R/T790M): < 0.05 µM | GI50 (Ba/F3 EGFR-Del19/T790M): < 0.05 µM | IC50 (EGFR^L858R): < 0.05 µM

C[C@H]1CCOc2c(cnn2C)-c2nccc(n2)Nc2cc(c(-c3ccc(CN4CCN(C)CC4)n3C)cn2)O1 [(103)]
GI50 (Ba/F3 EGFR-Del19/C797S): 0.1 to 1 µM | GI50 [1]: 0.1 to 1 µM | IC50 (EGFR^L858R/T790M/C797S): < 0.05 µM | IC50 (EGFR^L858R/T790M): < 0.05 µM | GI50 (Ba/F3 EGFR-Del19/T790M): 0.1 to 1 µM | IC50 (EGFR^L858R): 0.1 to 1 µM

C[C@H]1CCOc2c(cnn2C)-c2nccc(n2)Nc2cc(c(-c3ncc(CN4CCOCC4)s3)cn2)O1 [(115)]
GI50 (Ba/F3 EGFR-Del19/C797S): < 0.05 µM | GI50 [1]: < 0.05 µM | IC50 (EGFR^L858R/T790M/C797S): < 0.05 µM | IC50 (EGFR^L858R/T790M): < 0.05 µM | GI50 (Ba/F3 EGFR-Del19/T790M): < 0.05 µM | IC50 (EGFR^L858R): < 0.05 µM

C[C@H]1CCOc2c(cnn2C)-c2nccc(n2)Nc2cc(c(-c3cnn(CCCN(C)C)c3)cn2)O1 [(123)]
GI50 (Ba/F3 EGFR-Del19/C797S): < 0.05 µM | GI50 [1]: < 0.05 µM | IC50 (EGFR^L858R/T790M/C797S): < 0.05 µM | IC50 (EGFR^L858R/T790M): < 0.05 µM | GI50 (Ba/F3 EGFR-Del19/T790M): < 0.05 µM | IC50 (EGFR^L858R): < 0.05 µM

C[C@H]1CCOc2c(cnn2C)-c2nccc(n2)Nc2cc(c(-c3ccc(CN4CCOCC4)cc3)cn2)O1 [(124)]
GI50 (Ba/F3 EGFR-Del19/C797S): < 0.05 µM | GI50 [1]: < 0.05 µM | IC50 (EGFR^L858R/T790M/C797S): < 0.05 µM | IC50 (EGFR^L858R/T790M): < 0.05 µM | GI50 (Ba/F3 EGFR-Del19/T790M): < 0.05 µM | IC50 (EGFR^L858R): < 0.05 µM
